According to ChEMBL document CHEMBL1926604, “Design and synthesis of pyridin-2-ylmethylaminopiperidin-1-ylbutyl amide CCR5 antagonists that are potent inhibitors of M-tropic (R5) HIV-1 replication” (Bioorg Med Chem Lett, 2011):
Calls of active or inactive are those of the source. The rule behind the calls is not given here.

How the values were obtained:
[1] = tested on: Human immunodeficiency virus 1; experiment: Antiviral activity against R5 tropic Human immunodeficiency virus 1 BAL infected in human PBMC cells assessed as reduction in viral replication by p24 detection based ELISA; type: functional, organism-based
[2] = Cytotoxic activity against human PBMC assessed as reduction in cell viability; type: cell-based
[3] = (§1) Plasma protein binding in human plasma at 1 uM after 5 hrs by LC-MS/MS analysis; type: ADME, cell-free; conditions: read-out: PPB (converted)
[4] = Cmax in rat; type: ADME, organism-based; conditions: in vivo
[5] = Cmax in dog; type: ADME, organism-based, Canis lupus familiaris; conditions: in vivo
[6] = AUC (0 to infinity) in rat; type: ADME, organism-based; set-up: time infinity; concentration or dose not given beside the values; conditions: plasma
[7] = AUC (0 to infinity) in dog; type: ADME, organism-based, Canis lupus familiaris; set-up: time infinity; concentration or dose not given beside the values; conditions: plasma
[8] = Clearance in rat at 10 umol/kg, iv; type: ADME, organism-based; conditions: in vivo
[9] = Clearance in dog at 5 umol/kg, iv; type: ADME, organism-based, Canis lupus familiaris; conditions: in vivo
[10] = (§2) Volume of distribution at steady state in rat at 10 umol/kg, iv; type: ADME, organism-based; conditions: in vivo, 10 umol/kg, read-out: Vdss
[11] = Volume of distribution at steady state in dog at 5 umol/kg, iv; type: ADME, organism-based, Canis lupus familiaris; conditions: in vivo, read-out: Vdss
[12] = (§3) Half life in rat at 10 umol/kg, iv; type: ADME, organism-based; conditions: in vivo, 10 umol/kg
[13] = Half life in dog at 5 umol/kg, iv; type: ADME, organism-based, Canis lupus familiaris; conditions: in vivo
[14] = Oral bioavailability in rat; type: ADME, organism-based; conditions: in vivo
[15] = Oral bioavailability in dog; type: ADME, organism-based, Canis lupus familiaris; conditions: in vivo
[16] = molecular target: T1, Muscarinic acetylcholine receptor M2 (Homo sapiens) (UniProt P08172); experiment: Inhibition of muscarinic M2 receptor
T1 sequence (whole entry): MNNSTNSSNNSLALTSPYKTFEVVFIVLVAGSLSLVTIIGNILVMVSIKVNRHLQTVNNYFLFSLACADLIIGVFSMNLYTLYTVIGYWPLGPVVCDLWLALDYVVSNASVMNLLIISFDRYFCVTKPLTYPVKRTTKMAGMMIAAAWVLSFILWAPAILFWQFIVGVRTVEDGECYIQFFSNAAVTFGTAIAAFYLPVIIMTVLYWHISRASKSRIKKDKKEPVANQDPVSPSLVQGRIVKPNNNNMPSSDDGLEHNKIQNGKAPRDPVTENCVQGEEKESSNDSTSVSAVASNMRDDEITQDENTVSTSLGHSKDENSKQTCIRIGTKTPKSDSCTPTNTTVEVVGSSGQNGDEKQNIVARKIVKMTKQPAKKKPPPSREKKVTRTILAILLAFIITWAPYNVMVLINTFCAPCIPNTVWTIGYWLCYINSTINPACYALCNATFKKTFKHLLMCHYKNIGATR

[17] = molecular target: Cytochrome P450 3A4 (Homo sapiens, UniProt P08684); experiment: Inhibition of CYP3A4; type: ADME
[18] = molecular target: T2, Cytochrome P450 1A2 (Homo sapiens, UniProt P05177); experiment: Inhibition of CYP1A2; type: ADME
T2 sequence (P05177 whole entry): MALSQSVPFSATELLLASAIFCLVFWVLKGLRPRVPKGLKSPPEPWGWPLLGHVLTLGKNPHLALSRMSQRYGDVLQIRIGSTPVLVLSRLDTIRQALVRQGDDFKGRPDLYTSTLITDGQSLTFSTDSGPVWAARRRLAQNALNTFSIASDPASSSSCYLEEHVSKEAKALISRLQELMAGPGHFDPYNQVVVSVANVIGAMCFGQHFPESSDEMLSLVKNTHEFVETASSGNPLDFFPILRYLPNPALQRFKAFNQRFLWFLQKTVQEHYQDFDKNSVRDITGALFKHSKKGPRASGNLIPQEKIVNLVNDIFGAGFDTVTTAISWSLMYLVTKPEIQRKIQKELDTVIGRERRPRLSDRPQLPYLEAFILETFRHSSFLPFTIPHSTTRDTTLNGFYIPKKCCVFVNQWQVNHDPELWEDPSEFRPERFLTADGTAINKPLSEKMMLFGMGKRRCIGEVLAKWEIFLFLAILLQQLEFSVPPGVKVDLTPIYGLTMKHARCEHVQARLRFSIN

[19] = molecular target: Cytochrome P450 2C9 (Homo sapiens, UniProt P11712); experiment: Inhibition of CYP2C9; type: ADME
[20] = molecular target: Cytochrome P450 2C19 (Homo sapiens, UniProt P33261); experiment: Inhibition of CYP2C19; type: ADME
[21] = molecular target: Cytochrome P450 2D6 (Homo sapiens, UniProt P10635); experiment: Inhibition of CYP2D6; type: ADME
[22] = molecular target: Voltage-gated inwardly rectifying potassium channel KCNH2 (Homo sapiens, UniProt Q12809); experiment: Inhibition of human ERG
[23] = molecular target: T3, C-C chemokine receptor type 1 (Homo sapiens) (UniProt P32246); experiment: Inhibition of CCR1 by Ca(2+) flux assay
T3 sequence (whole entry): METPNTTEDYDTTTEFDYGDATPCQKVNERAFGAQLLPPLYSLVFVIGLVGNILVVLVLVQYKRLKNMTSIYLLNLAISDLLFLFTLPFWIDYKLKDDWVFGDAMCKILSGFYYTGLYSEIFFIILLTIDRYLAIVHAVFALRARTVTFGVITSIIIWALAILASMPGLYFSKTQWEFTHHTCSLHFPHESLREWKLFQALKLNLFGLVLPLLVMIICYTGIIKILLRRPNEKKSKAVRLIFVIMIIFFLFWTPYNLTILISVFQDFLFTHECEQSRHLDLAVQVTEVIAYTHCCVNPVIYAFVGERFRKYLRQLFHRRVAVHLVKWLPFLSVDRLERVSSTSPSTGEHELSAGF

[24] = molecular target: C-C chemokine receptor type 2 (Homo sapiens) (UniProt P41597); experiment: Inhibition of CCR2B by Ca(2+) flux assay
[25] = molecular target: T4, C-C chemokine receptor type 4 (Homo sapiens) (UniProt P51679); experiment: Inhibition of CCR4 by Ca(2+) flux assay
T4 sequence (whole entry): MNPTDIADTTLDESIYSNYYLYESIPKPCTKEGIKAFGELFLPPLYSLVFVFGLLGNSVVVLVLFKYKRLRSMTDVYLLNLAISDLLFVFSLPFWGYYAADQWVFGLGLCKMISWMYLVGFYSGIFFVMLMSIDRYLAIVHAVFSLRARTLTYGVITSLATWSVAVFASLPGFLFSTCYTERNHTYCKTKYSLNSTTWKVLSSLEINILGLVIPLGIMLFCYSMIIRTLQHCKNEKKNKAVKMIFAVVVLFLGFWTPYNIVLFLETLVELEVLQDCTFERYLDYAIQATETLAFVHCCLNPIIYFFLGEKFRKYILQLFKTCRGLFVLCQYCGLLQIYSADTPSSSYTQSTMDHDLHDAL

[26] = molecular target: T5, C-X-C chemokine receptor type 1 (Homo sapiens) (UniProt P25024); experiment: Inhibition of CXCR1 by Ca(2+) flux assay
T5 sequence (whole entry): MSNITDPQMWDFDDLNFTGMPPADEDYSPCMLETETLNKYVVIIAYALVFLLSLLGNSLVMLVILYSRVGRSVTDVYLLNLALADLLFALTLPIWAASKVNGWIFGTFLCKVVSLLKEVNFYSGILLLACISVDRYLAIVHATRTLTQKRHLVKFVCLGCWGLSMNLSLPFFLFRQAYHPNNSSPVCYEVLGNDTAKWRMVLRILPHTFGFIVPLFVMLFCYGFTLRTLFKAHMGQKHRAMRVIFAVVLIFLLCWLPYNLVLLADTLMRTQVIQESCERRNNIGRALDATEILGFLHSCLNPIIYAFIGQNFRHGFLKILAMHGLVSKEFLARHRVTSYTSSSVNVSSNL

[27] = molecular target: T6, C-X-C chemokine receptor type 2 (Homo sapiens) (UniProt P25025); experiment: Inhibition of CXCR2 by Ca(2+) flux assay
T6 sequence (whole entry): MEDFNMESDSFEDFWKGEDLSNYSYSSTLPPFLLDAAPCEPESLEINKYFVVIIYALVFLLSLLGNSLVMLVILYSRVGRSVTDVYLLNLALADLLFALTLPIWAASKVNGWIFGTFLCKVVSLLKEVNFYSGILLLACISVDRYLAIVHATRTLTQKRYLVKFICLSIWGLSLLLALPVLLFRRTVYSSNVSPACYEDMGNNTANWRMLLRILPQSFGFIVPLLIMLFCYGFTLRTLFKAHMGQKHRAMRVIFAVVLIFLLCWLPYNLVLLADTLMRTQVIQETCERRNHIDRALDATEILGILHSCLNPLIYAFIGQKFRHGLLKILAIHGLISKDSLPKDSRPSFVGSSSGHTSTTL

[28] = molecular target: C-X-C chemokine receptor type 4 (Homo sapiens) (UniProt P61073); experiment: Inhibition of CXCR4 by Ca(2+) flux assay
[29] = tested on: Plasma; experiment: as §1; type: ADME, cell-free; conditions: 5 h, 1 µM
[30] = tested on: Rattus norvegicus; experiment: as §2; type: ADME, organism-based; conditions: in vivo
[31] = tested on: Rattus norvegicus; experiment: as §3; type: ADME, organism-based; conditions: in vivo

Sequence of Cytochrome P450 3A4 (P08684 whole entry): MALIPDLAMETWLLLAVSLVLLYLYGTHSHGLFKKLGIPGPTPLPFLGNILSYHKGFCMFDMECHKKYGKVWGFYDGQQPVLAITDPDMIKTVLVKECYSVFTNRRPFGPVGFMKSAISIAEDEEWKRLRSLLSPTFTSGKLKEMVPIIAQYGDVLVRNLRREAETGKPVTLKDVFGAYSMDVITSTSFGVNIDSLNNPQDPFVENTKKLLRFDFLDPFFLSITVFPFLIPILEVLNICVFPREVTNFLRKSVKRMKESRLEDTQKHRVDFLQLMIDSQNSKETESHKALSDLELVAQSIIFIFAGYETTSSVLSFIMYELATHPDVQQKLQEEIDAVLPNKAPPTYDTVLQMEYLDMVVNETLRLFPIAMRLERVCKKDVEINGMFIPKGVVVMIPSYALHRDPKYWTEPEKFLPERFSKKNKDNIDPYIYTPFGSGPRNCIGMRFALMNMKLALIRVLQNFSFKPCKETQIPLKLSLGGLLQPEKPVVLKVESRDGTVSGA
Sequence of C-C chemokine receptor type 2 (Homo sapiens) (P41597 whole entry, looked up): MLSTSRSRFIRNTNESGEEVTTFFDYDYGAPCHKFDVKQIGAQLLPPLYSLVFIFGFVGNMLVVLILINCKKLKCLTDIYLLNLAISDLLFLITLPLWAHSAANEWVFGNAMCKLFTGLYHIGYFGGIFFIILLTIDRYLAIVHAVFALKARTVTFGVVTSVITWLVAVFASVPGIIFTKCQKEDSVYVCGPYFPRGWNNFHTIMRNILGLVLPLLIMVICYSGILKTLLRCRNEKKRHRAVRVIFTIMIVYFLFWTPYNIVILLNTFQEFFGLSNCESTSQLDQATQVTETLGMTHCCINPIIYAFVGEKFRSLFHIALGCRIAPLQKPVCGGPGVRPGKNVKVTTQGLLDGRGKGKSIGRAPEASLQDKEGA
Sequence of Cytochrome P450 2C9 (P11712 whole entry): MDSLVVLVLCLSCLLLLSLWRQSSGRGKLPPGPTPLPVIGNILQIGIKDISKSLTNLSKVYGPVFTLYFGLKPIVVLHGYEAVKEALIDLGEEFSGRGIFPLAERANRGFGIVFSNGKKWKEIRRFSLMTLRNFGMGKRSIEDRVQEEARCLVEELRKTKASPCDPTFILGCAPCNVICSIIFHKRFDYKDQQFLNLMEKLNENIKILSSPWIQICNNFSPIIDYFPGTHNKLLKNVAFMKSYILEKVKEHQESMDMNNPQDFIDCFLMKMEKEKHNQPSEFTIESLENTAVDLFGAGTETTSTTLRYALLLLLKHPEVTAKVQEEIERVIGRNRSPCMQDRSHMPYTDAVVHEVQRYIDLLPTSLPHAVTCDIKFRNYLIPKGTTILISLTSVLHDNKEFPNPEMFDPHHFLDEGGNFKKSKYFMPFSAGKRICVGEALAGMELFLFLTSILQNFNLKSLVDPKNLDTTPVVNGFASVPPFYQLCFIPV
Sequence of Cytochrome P450 2C19 (P33261 whole entry): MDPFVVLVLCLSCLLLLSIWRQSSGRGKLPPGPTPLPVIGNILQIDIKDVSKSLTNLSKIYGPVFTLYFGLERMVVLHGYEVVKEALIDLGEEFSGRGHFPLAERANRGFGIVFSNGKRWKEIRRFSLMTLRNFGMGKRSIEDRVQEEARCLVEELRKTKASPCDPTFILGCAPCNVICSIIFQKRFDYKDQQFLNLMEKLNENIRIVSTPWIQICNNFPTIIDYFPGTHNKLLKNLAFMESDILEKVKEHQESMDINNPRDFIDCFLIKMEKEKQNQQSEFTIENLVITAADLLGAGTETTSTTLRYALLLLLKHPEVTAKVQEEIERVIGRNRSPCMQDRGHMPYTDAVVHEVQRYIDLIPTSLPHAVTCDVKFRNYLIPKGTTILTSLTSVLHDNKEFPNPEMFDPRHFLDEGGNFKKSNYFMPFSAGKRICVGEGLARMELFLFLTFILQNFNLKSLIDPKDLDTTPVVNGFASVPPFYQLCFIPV
Sequence of C-X-C chemokine receptor type 4 (Homo sapiens) (P61073 whole entry): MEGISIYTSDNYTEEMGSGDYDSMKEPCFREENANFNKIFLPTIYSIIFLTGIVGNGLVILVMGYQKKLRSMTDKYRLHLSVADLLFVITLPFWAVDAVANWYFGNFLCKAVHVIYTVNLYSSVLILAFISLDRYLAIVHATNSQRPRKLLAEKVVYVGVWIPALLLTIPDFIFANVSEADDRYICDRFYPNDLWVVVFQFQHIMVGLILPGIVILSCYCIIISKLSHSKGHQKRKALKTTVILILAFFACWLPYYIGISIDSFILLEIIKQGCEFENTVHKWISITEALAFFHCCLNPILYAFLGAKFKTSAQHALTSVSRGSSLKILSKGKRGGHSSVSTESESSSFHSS
Sequence of Cytochrome P450 2D6 (P10635 whole entry): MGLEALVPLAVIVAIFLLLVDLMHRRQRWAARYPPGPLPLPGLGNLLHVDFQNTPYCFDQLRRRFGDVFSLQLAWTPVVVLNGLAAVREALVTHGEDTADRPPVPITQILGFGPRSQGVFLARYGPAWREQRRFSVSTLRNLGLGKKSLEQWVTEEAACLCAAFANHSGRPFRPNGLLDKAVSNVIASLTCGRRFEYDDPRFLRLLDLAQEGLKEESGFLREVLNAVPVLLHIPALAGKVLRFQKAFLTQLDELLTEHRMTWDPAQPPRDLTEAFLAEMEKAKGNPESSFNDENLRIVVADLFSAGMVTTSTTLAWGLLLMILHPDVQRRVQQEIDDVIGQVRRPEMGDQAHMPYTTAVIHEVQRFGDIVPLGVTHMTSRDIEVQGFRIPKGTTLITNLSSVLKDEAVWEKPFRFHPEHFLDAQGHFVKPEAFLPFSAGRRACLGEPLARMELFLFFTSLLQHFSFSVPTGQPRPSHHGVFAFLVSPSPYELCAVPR
Sequence of Voltage-gated inwardly rectifying potassium channel KCNH2 (Q12809 whole entry): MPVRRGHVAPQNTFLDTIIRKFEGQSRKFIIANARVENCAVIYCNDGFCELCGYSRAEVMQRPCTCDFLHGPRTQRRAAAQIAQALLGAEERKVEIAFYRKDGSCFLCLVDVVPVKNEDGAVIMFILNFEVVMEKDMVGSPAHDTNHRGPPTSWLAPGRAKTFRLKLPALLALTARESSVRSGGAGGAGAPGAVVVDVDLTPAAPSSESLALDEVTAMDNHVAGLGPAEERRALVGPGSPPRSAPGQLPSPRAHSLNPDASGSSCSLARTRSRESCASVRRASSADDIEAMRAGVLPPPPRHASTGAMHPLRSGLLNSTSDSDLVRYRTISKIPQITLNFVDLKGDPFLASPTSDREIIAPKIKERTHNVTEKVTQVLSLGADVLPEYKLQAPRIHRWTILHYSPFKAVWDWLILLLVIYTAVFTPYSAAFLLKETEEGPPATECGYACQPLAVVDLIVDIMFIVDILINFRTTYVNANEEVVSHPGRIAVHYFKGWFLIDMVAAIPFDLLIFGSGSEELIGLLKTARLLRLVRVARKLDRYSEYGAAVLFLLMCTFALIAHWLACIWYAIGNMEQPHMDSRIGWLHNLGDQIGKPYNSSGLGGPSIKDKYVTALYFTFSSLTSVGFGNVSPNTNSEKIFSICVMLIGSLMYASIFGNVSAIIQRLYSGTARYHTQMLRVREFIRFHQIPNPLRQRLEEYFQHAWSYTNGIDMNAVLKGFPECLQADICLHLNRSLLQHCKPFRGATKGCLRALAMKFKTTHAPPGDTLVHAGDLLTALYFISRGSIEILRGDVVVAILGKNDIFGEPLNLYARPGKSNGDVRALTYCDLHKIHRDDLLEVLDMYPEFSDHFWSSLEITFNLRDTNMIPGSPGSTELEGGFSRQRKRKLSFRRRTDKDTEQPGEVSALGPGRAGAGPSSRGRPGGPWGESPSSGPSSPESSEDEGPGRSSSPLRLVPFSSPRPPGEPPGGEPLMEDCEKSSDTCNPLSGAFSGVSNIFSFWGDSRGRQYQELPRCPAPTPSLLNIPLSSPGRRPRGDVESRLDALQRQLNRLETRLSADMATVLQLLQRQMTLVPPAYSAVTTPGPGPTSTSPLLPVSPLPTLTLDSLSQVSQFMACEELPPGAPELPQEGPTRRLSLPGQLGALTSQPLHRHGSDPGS

SMILES | IC50 [1] [nM] | CC50 [2] [nM] | fraction unbound at 5 h, 1 µM [3] | Cmax [4] [nM] | Cmax [5] [nM] | AUC(0-inf) [6] [µM·h] | AUC(0-inf) [7] [µM·h] | clearance [8] [mL/min/kg] | clearance [9] [mL/min/kg] | Vd [10] [L/kg] | Vd [11] [L/kg] | half-life [12] [h] | half-life [13] [h] | bioavailability [14] [%] | bioavailability [15] [%] | other results
COCCOc1ccc(N(Cc2cnccc2C)C2CCN([C@H](C)CCNC(=O)c3c(C)cc(Cl)nc3C)CC2)cc1 | 2 | > 32700 | 0.15 | 1070 | 10 | 7.18 | 0.02 | 61.2 | 157 | 9.2 | 4.9 | 1.7 | 1.3 | 27 | < 1 | –
COc1ccc(N(Cc2cnccc2C)C2CCN([C@H](C)CCNC(=O)c3c(C)ccnc3Cl)CC2)cc1 | 22.3 | > 37700 | 0.12 | 3110 | 150 | 18.3 | 0.2 | 58.7 | 36.5 | 15.4 | 10.3 | 3 | 3.3 | 70 | 4 | –
COc1ccc(N(Cc2cnccc2C)C2CCN([C@H](C)CCNC(=O)c3c(C)cc(F)nc3C)CC2)cc1 | 2.2 | > 36300 | 0.21 | 1270 | 410 | 10.9 | 0.65 | 16.6 | 32 | 4.6 | 8.3 | 3.3 | 3 | 3 | 10 | –
COc1ccc(N(Cc2cnccc2C)C2CCN([C@H](C)CCNC(=O)c3c(C)cc(Cl)nc3C)CC2)cc1 | 2.2 | > 36400 | 0.08 | 3800 | 580 | 22.7 | 1.33 | 46.7 | 30 | 40.5 | 34.7 | 10 | 13.5 | 67 | 21 | inhibition [16]: inactive; INH [17]: > 10 µM; INH [18]: > 10 µM; INH [19]: > 10 µM; INH [20]: > 10 µM; INH [21]: > 10 µM; IC50 [22]: 250 nM; inhibition [23]: inactive; inhibition [24]: inactive; inhibition [25]: inactive; inhibition [26]: inactive; inhibition [27]: inactive; inhibition [28]: inactive
CC(CCNC(=O)c1c(Cl)cncc1Cl)N1CCC(N(Cc2cccc(C#N)c2)c2ccc(OC(F)(F)F)cc2)CC1 (stereo not drawn) | 2 | 6000 | < 0.001 | 530 | 750 | 7.3 | 5.11 | 132 | 15 | 23.7 | 6 | 5 | 5.4 | 57 | 36 | –
COc1ccc(N(Cc2cnccc2C)C2CCN([C@H](C)CCNC(=O)c3c(C)cc(C(=O)NC(C)C)nc3C)CC2)cc1 | 0.96 | > 32800 | 0.11 | – | 920 | – | 0.48 | – | 21.1 | – | 5.2 | – | 2.8 | – | 5 | –
COc1ccc(N(Cc2cnccc2C)C2CCN([C@H](C)CCNC(=O)c3c(C)ncnc3C)CC2)cc1 | 1830 | > 38300 | – | – | – | – | – | – | – | – | – | – | – | – | – | PPB [29]: 75%
COc1ccc(N(Cc2cccnc2)C2CCN([C@H](C)CCNC(=O)c3c(C)cc(Cl)nc3C)CC2)cc1 | 18.9 | > 37300 | 0.07 | 1330 | 1570 | 4.83 | 2.73 | – | 23.3 | – | 26.7 | – | 13.2 | 23 | 37 | Vdss [30]: 50.5 L/kg; t1/2 [31]: 8.6 h
COc1ccc(N(Cc2cccc(C#N)n2)C2CCN([C@H](C)CCNC(=O)c3c(C)cc(Cl)nc3C)CC2)cc1 | 3.5 | > 35100 | 0.16 | – | 520 | – | 0.72 | – | 42.7 | – | 3 | – | 0.8 | – | 15 | –
CC(CCNC(=O)c1c(Cl)cncc1Cl)N1CCC(N(Cc2ccccc2)c2ccc(Oc3ccc(C(=O)O)cc3)cc2)CC1 (stereo not drawn) | 96 | 22100 | < 0.001 | 2790 | 11200 | 9.07 | 14.5 | 30 | 5 | 4.2 | 0.4 | 4.8 | 1.5 | 16 | 35 | –
